Data from patent publication US20240043539A1, “METHODS OF INDUCING AN IMMUNOMODULATORY TUMOR RESPONSE” (CORNELL UNIVERSITY, priority 2020, published 2024).

Experiments:
Type in all cases: cell-based, mouse
oTME macrophages (BMDMs) = test: γ-secretase inhibition: Ki67 in M2-educated (oTME) macrophages, flow cytometry
Description: BMDMs were co-cultured with oTME cells for 7 days and treated either with CompE ([…]) or DMSO as a control for additional 10 days. Cells were analyzed by flow cytometry for Ki67, F4/80, and CD11b. Data (n=3) are shown as mean±SD., 2-way ANOVA test, Bonferroni-corrected. FIG. 17D is a pre-clinical study design. […] Tumor sizes were recorded by caliper and shown as mean±SD., 2-way ANOVA test, Bonferroni-corrected. At the trial endpoint, lungs were collected and stained with H&E (right). […] At study endpoint, tumor transplants from (FIG. 17E) were scored for Ki67 in macrophages and in tumor cells (PyMT; mT^neg CD45^neg). Data are shown as mean±SD., 2-way ANOVA test, Bonferroni-corrected. Macrophage abundance quantified as percent of CD45+ cells. Data are shown as mean±SD., Mann-Whitney test. […]

[1] = tested on: IL-4/IL-13-treated macrophages (BMDMs); test: Arg1 expression in IL-4/IL-13-treated macrophages (absence of oTME cells), flow cytometry
[2] = tested on: Arg1-EYFP BMDMs co-cultured with oTME cells
Description: FIGS. 6A-6H show a genome-wide pooled M2-like education screen in primary macrophages. […] Gene hits in EYFP″g BMDMs are highlighted in red. Distribution of LFC values (red lines) across all four sgRNAs of select gene targets (right). […] Arg1-EYFP BMDMs were co-cultured with oTME cells for 7 days, and then were treated with Abemaciclib (5, 10 μM) or DMSO for additional 7 days and analyzed by flow cytometry for EYFP (n=4 replicates). Data are shown as mean±SD., 2-tailed unpaired Student's t-test. […] Arg1-EYFP BMDMs were treated for 7 days with a cytokines cocktail consists of IL-4 (10 ng/mL), IL-13(80ng/mL), M-CSF(10 ng/mL) or with M-CSF alone as control (supplemented every 3 days). Cells were then treated with Abemaciclib (5 μM) or DMSO for additional 7 days and analyzed by flow cytometry for EYFP (n=3 replicates). Data are shown as mean±SD., 2-tailed unpaired Student's t-test. […] Cells then treated with PF-431369 (5 uM) or DMSO for additional 7 days. On day 14, cells were fixed and stained for Arg1 and CD206 and analyzed by flow cytometry. (n=3 replicates). Data are shown as mean±SD., 2-tailed unpaired Student's t-test. […]
Flow Cytometry and Fluorescence-Activated Cell Sorting (FACS): Flow cytometry data were collected using BD LSRFortessa, BD FACSCanto II, and BD FACSAria III was used for FACS-sort. […]

[3] = tested on: BMDMs plated with oTME cells; test: EdU incorporation in macrophages following 48 hrs oTME education in the presence of Tyk2 inhibitors; conditions: BMS-986165, 10 μM vs DMSO, EdU 10 μM
Text: FIGS. 3A-3H show the time course single-cell RNAseq analysis of macrophage TME-education. […] Cells were profiled after 2 and 10 days with the 10× Chromium single-cell RNA-seq platform. […] The figure legend is the same as FIG. 3B. FIG. 3D is a heatmap showing macrophage education expression dynamics of M-CSF-treated (n=214), early (day 2, n=235), late (day 10, n=301) genes. The cells are sorted and split into 20 equal-width bins by the education pseudo-time, average expression level (row-wise Z-score; color scale) of education signature genes (rows) across each bin (columns) is shown. The figure legend is the same as FIG. 3B. […] Genes are dotted and colored by logFC levels (color scale), the size of each dot represents the difference in the fraction of detection between the two groups. The p values were determined by Wilcoxon Rank Sum test. Vertical dotted lines represent ±0.75 logFC. Horizontal dotted lines represent p value of 0.01 (−log10 scale). […] Each dot represents an average of cells in 50 equal-width bins on the education pseudo-time axis, same as FIG. 3E. […] EdU incorporation was analyzed by flow cytometry (n=4 replicates). […]
EdU Incorporation: Cells were incubated with 10μM EdU (5-ethynyl-2′-deoxyuridine) without changing conditioned growth medium for the required duration and analyzed by flow cytometry according to the manufacturer's instructions (A10202; Thermo Fisher Scientific). […]

SMILES: C[C@H](NC(=O)Cc1cc(F)cc(F)c1)C(=O)N[C@H]1N=C(c2ccccc2)c2ccccc2N(C)C1=O [Compound-E]
- reduction in Ki67 positivity (oTME macrophages (BMDMs); 7 days co-culture, then CompE or DMSO for additional 10 days): 89.6±3.8%
- expression of F4/80 (oTME macrophages (BMDMs); oTME macrophages after treatment): increased

SMILES: CN(c1ccccc1CNc1nc(Nc2ccc3c(c2)CC(=O)N3)ncc1C(F)(F)F)S(C)(=O)=O [PF-431396]
- Arg1 expression ([1]; IL-4/IL-13-treated macrophages, 5 uM or DMSO for additional 7 days, stained for Arg1 and CD206): robust suppression
- Arg1 expression ([2]; oTME macrophages, 10 μM or DMSO for additional 7 days, EYFP by flow cytometry): robust suppression

SMILES: [2H]C([2H])([2H])NC(=O)c1nnc(NC(=O)C2CC2)cc1Nc1cccc(-c2ncn(C)n2)c1OC [Tyk2 inhibitors, 6-(cyclopropanecarbonylamino)-4-[2-methoxy-3-(1-methyl-1,2,4-triazol-3-yl)anilino]-N-(trideuteriomethyl)pyridazine-3-carboxamide]
- EdU incorporation in oTME macrophages [3]: significantly decreased

SMILES: CCN1CCN(Cc2ccc(Nc3ncc(F)c(-c4cc(F)c5nc(C)n(C(C)C)c5c4)n3)nc2)CC1 [abemaciclib, N-[5-[(4-ethylpiperazin-1-yl)methyl]pyridin-2-yl]-5-fluoro-4-(7-fluoro-2-methyl-3-propan-2-ylbenzimidazol-5-yl)pyrimidin-2-amine]
- Arg1-EYFP expression ([1]; IL-4/IL-13/M-CSF for 7 days, then Abemaciclib (5 μM) or DMSO for additional 7 days): suppressed
- Arg1-EYFP expression ([2]; oTME-educated Arg1-EYFP BMDMs, Abemaciclib (5, 10 μM) or DMSO for additional 7 days): dose-dependent reduction
